{"source": "paper PMC7618122", "about": "(American journal of physiology. Heart and circulatory …, 2025)", "target": "T1, Nav1.5 (Homo sapiens, UniProt Q14524, F1760A)", "T1 construct": "gene SCN5A"}
{"smiles": "Cc1cccc(C)c1OCC(C)N", "note": "(stereo not shown) [MEXI, mexiletine]", "values": [{"measurement": "whole-cell patch clamp of tsA201 cells after 24-h incubation with 100 μM; effect", "value": "Nav1.5-F1760A peak INa densities, on the other hand, were significantly enhanced after 24-h incubation with MEXI"}]}
